According to patent US10590128B2, “6,7,8,9-tetrahydro-5H-pyrido[2,3-d]azepine dopamine D3 ligands” (Pfizer Inc., priority 2016, dated 2020):

Columns and labels:
[1] = target: human dopamine D3 receptor (hD3R) (Homo sapiens, UniProt P35462); experiment: Human D3 receptor binding assay ([^3H]-7-OH-DPAT); details: CHO cells expressing hD3R, geometric mean of 2-5 determinations unless marked b (single determination), read-out: hD3 in CHO cells Ki
[2] = target: human dopamine D2 receptor (hD2R) (Homo sapiens, UniProt P14416); experiment: Human D2 receptor binding assay ([^3H]-Spiperone); details: CHO cells expressing hD2R, geometric mean of 2-5 determinations unless marked b (single determination)
Sequence of human dopamine D2 receptor (hD2R) (P14416 whole entry): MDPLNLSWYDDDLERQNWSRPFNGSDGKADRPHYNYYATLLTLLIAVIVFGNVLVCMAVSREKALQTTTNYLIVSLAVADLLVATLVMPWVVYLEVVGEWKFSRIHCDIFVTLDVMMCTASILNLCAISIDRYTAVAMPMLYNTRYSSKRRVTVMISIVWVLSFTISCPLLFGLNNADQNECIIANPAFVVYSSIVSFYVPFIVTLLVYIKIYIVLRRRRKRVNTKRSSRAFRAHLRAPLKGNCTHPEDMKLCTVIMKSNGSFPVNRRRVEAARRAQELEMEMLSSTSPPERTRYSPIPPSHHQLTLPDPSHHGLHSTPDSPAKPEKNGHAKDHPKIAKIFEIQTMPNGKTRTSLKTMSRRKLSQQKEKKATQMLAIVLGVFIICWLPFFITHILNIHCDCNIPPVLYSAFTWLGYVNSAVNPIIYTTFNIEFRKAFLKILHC

Sequence of human dopamine D3 receptor (hD3R) (P35462 whole entry): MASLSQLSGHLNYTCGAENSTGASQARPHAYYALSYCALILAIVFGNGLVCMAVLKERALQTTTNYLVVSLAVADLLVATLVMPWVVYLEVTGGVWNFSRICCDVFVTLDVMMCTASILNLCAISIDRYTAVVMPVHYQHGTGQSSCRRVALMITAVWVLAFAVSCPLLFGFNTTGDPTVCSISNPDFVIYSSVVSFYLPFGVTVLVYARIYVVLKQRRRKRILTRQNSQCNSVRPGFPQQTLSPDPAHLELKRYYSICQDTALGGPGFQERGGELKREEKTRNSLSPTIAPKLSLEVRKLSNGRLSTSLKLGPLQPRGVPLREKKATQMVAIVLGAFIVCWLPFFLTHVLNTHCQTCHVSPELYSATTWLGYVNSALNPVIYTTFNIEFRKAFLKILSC

Structure (SMILES)	Ki [1] [nM]	Ki [2] [nM]
CCN1CCc2cc(NS(=O)(=O)c3ccc(Oc4ccccc4)nc3)c(OC)nc2CC1 [Example 60, N-(7-ethyl-2-methoxy-6,7,8,9-tetrahydro-5H-pyrido[2,3-d]azepin-3-yl)-6-phenoxypyridine-3-sulfonamide]	2.94	395
COc1nc2c(cc1NS(=O)(=O)c1ccc(C3CCOC3)cc1)CCN(C)CC2 (centres unmarked) [Example 36, N-(2-methoxy-7-methyl-6,7,8,9-tetrahydro-5H-pyrido[2,3-d]azepin-3-yl)-4-(tetrahydrofuran-3-yl)benzenesulfonamide]	3.29	260
CCN1CCc2cc(NS(=O)(=O)c3ccc(C4CCOC4)cc3)c(OC)nc2CC1 (centres unmarked) [Example 71, N-(7-ethyl-2-methoxy-6,7,8,9-tetrahydro-5H-pyrido[2,3-d]azepin-3-yl)-4-(tetrahydrofuran-3-yl)benzenesulfonamide]	4.84	754
COc1nc2c(cc1NS(=O)(=O)c1ccc(C3(F)CCCC3)nc1)CCN(C)CC2 [Example 11, 6-(1-fluorocyclopentyl)-N-(2-methoxy-7-methyl-6,7,8,9-tetrahydro-5H-pyrido[2,3-d]azepin-3-yl)pyridine-3-sulfonamide]	3.31	106
CCN1CCc2cc(NS(=O)(=O)c3ccc(C4CCOCC4)cc3)c(OC)nc2CC1 [Example 57, N-(7-ethyl-2-methoxy-6,7,8,9-tetrahydro-5H-pyrido[2,3-d]azepin-3-yl)-4-(tetrahydro-2H-pyran-4-yl)benzenesulfonamide]	3.14	229
COc1nc2c(cc1NS(=O)(=O)c1ccc(OC3CCCC3)nc1C)CCN(C)CC2 [Example 128, 6-(cyclopentyloxy)-N-(2-methoxy-7-methyl-6,7,8,9-tetrahydro-5H-pyrido[2,3-d]azepin-3-yl)-2-methylpyridine-3-sulfonamide]	1.24	4.07
CCO[C@H]1C[C@@H](c2ccc(S(=O)(=O)Nc3cc4c(nc3OC)CCN(C)CC4)cn2)C1 [Example 135, 6-(cis-3-ethoxycyclobutyl)-N-(2-methoxy-7-methyl-6,7,8,9-tetrahydro-5H-pyrido[2,3-d]azepin-3-yl)pyridine-3-sulfonamide]	23.6	> 3140
CCCN1CCc2cc(NS(=O)(=O)c3ccc(C)cc3)c(OC)nc2CC1 [Example 26, N-(2-methoxy-7-propyl-6,7,8,9-tetrahydro-5H-pyrido[2,3-d]azepin-3-yl)-4-methylbenzenesulfonamide]	2.43	522
COc1nc2c(cc1NS(=O)(=O)c1ccc(OC3CCCC3)nc1)CCN(CCCF)CC2 [Example 122, 6-(cyclopentyloxy)-N-[7-(3-fluoropropyl)-2-methoxy-6,7,8,9-tetrahydro-5H-pyrido[2,3-d]azepin-3-yl]pyridine-3-sulfonamide]	4.58	128
COc1nc2c(cc1NS(=O)(=O)c1ccc([C@@H]3CCCCO3)c(C)c1)CCN(C)CC2 [Example 105, N-(2-methoxy-7-methyl-6,7,8,9-tetrahydro-5H-pyrido[2,3-d]azepin-3-yl)-3-methyl-4-[(2S)-tetrahydro-2H-pyran-2-yl]benzenesulfonamide]	0.46	26.1
COc1nc2c(cc1NS(=O)(=O)c1ccc([C@H]3CCCCO3)cc1)CCNCC2 [Example 9, N-(2-Methoxy-6,7,8,9-tetrahydro-5H-pyrido[2,3-d]azepin-3-yl)-4-[(2R)-tetrahydro-2H-pyran-2-yl]benzenesulfonamide]	7.68	1270
CCN1CCc2cc(NS(=O)(=O)c3ccc(C)cc3)c(OC)nc2CC1 [Example 53, N-(7-ethyl-2-methoxy-6,7,8,9-tetrahydro-5H-pyrido[2,3-d]azepin-3-yl)-4-methylbenzenesulfonamide]	2.75	313
CCN1CCc2cc(NS(=O)(=O)c3ccc([C@H]4C[C@H](OCCF)C4)cc3)c(OC)nc2CC1 [Example 20, N-(7-ethyl-2-methoxy-6,7,8,9-tetrahydro-5H-pyrido[2,3-d]azepin-3-yl)-4-[trans-3-(2-fluoroethoxy)cyclobutyl]benzenesulfonamide]	1.74	116
CCN1CCc2cc(NS(=O)(=O)c3ccc(C(C)C)cc3)c(OC)nc2CC1 [Example 51, N-(7-ethyl-2-methoxy-6,7,8,9-tetrahydro-5H-pyrido[2,3-d]azepin-3-yl)-4-(propan-2-yl)benzenesulfonamide]	1.12	105
CCN1CCc2cc(NS(=O)(=O)c3ccc(OC4CCCC4)cc3)c(OC)nc2CC1 [Example 63, 4-(cyclopentyloxy)-N-(7-ethyl-2-methoxy-6,7,8,9-tetrahydro-5H-pyrido[2,3-d]azepin-3-yl)benzenesulfonamide]	0.32	11.4
CCOc1ccc(S(=O)(=O)Nc2cc3c(nc2OC)CCN(CC)CC3)cc1 [Example 52, 4-ethoxy-N-(7-ethyl-2-methoxy-6,7,8,9-tetrahydro-5H-pyrido[2,3-d]azepin-3-yl)benzenesulfonamide]	2.56	435

Structure (SMILES)	Ki [1] [nM]	Ki [2] [nM]
CCN1CCc2cc(NS(=O)(=O)c3ccc([C@]4(F)C[C@H](OC)C4)cc3)c(OC)nc2CC1 [Example 96, N-(7-ethyl-2-methoxy-6,7,8,9-tetrahydro-5H-pyrido[2,3-d]azepin-3-yl)-4-(trans-1-fluoro-3-methoxycyclobutyl)benzenesulfonamide]	2.79	317
COc1nc2c(cc1NS(=O)(=O)c1ccc(C(C)C)cc1)CCN(CCCF)CC2 [Example 44, N-[7-(3-fluoropropyl)-2-methoxy-6,7,8,9-tetrahydro-5H-pyrido[2,3-d]azepin-3-yl]-4-(propan-2-yl)benzenesulfonamide]	2.25	162
CCN1CCc2cc(NS(=O)(=O)c3ccc(C4(F)CCOCC4)cc3)c(OC)nc2CC1 [Example 75, N-(7-ethyl-2-methoxy-6,7,8,9-tetrahydro-5H-pyrido[2,3-d]azepin-3-yl)-4-(4-fluorotetrahydro-2H-pyran-4-yl)benzenesulfonamide]	3.2	262
CCO[C@H]1C[C@H](c2ccc(S(=O)(=O)Nc3cc4c(nc3OC)CCN(C)CC4)cn2)C1 [Example 134, 6-(trans-3-ethoxycyclobutyl)-N-(2-methoxy-7-methyl-6,7,8,9-tetrahydro-5H-pyrido[2,3-d]azepin-3-yl)pyridine-3-sulfonamide]	14.8	1810
CCOc1ccc(S(=O)(=O)Nc2cc3c(nc2OC)CCN(C)CC3)cc1 [Example 28, 4-ethoxy-N-(2-methoxy-7-methyl-6,7,8,9-tetrahydro-5H-pyrido[2,3-d]azepin-3-yl)benzenesulfonamide]	2.33	124
CCN1CCc2cc(NS(=O)(=O)c3ccc(C4(C)CCOCC4)cc3)c(OC)nc2CC1 [Example 69, N-(7-ethyl-2-methoxy-6,7,8,9-tetrahydro-5H-pyrido[2,3-d]azepin-3-yl)-4-(4-methyltetrahydro-2H-pyran-4-yl)benzenesulfonamide]	4.77	392
CCN1CCc2cc(NS(=O)(=O)c3ccc([C@H]4C[C@@H](OCCF)C4)cc3)c(OC)nc2CC1 [Example 119, N-(7-ethyl-2-methoxy-6,7,8,9-tetrahydro-5H-pyrido[2,3-d]azepin-3-yl)-4-[cis-3-(2-fluoroethoxy)cyclobutyl]benzenesulfonamide]	2.42	89.9
CCN1CCc2cc(NS(=O)(=O)c3ccc(C)c(F)c3)c(OC)nc2CC1 [Example 35, N-(7-ethyl-2-methoxy-6,7,8,9-tetrahydro-5H-pyrido[2,3-d]azepin-3-yl)-3-fluoro-4-methylbenzenesulfonamide]	3.7	995
COc1nc2c(cc1NS(=O)(=O)c1ccc([C@H]3CCCO3)cc1)CCN(C)CC2 [Example 99, N-(2-methoxy-7-methyl-6,7,8,9-tetrahydro-5H-pyrido[2,3-d]azepin-3-yl)-4-[(2R)-tetrahydrofuran-2-yl]benzenesulfonamide]	3.05	314
CCN1CCc2cc(NS(=O)(=O)c3ccc([C@H]4CCCCO4)c(C)c3)c(OC)nc2CC1 [Example 107, N-(7-ethyl-2-methoxy-6,7,8,9-tetrahydro-5H-pyrido[2,3-d]azepin-3-yl)-3-methyl-4-[(2R)-tetrahydro-2H-pyran-2-yl]benzenesulfonamide]	0.46	7.24
COc1nc2c(cc1NS(=O)(=O)c1ccc(C3(OC)CCCC3)cc1)CCN(C)CC2 [Example 95, 4-(1-methoxycyclopentyl)-N-(2-methoxy-7-methyl-6,7,8,9-tetrahydro-5H-pyrido[2,3-d]azepin-3-yl)benzenesulfonamide]	0.6	45.3
COc1nc2c(cc1NS(=O)(=O)c1cnc(OC3CCC3)nc1)CCN(C)CC2 [Example 116, 2-(cyclobutyloxy)-N-(2-methoxy-7-methyl-6,7,8,9-tetrahydro-5H-pyrido[2,3-d]azepin-3-yl)pyrimidine-5-sulfonamide]	7.17	379
CCN1CCc2cc(NS(=O)(=O)c3ccc(OC4CCCC4)nc3)c(OC)nc2CC1 [Example 2, 6-(Cyclopentyloxy)-N-(7-ethyl-2-methoxy-6,7,8,9-tetrahydro-5H-pyrido[2,3-d]azepin-3-yl)pyridine-3-sulfonamide]	0.859	76
CCN1CCc2cc(NS(=O)(=O)c3ccc4c(c3)CC(C)O4)c(OC)nc2CC1 (centres unmarked) [Example 67, N-(7-ethyl-2-methoxy-6,7,8,9-tetrahydro-5H-pyrido[2,3-d]azepin-3-yl)-2-methyl-2,3-dihydro-1-benzofuran-5-sulfonamide]	4.02	660
CCN1CCc2nc(OC)c(NS(=O)(=O)c3ccc(C)cc3)cc2C(C)C1 (centres unmarked) [Example 13, N-(7-ethyl-2-methoxy-5-methyl-6,7,8,9-tetrahydro-5H-pyrido[2,3-d]azepin-3-yl)-4-methylbenzenesulfonamide]	10.8	923
